Patent US9139557B2, “Carboxamide compounds and their use as calpain inhibitors” (Abbott GmbH & Co. KG, priority 2006, dated 2015)

Columns and labels:
Type in all cases: biochemical
cathepsin B = target: T1, cathepsin B (Homo sapiens, UniProt P07858); experiment: Cathepsin B enzyme inhibition in vitro (kinetic fluorescence assay); conditions: Ki(cathepsin B)/Ki(calpain) ratio
T1 construct: cathepsin B—isolated from human liver; purchased Calbiochem 219362; host or cells: human liver (tissue isolate)
Method: (§1) Testing for blockade of the corresponding enzymic activities was carried out by means of kinetic fluorescence assays (excitation 390 nm, emission 460 nm).
(§2) Apparent Ki values were calculated from the experimentally determined IC50 values by the Cheng-Prussoff relation assuming a reversible competitive enzyme inhibition. The Km values of the substrates used under the assay conditions indicated above were: 90 μM (Z-Phe-Arg-AMC, cathepsin B), 10 μM (Z-Gly-Pro-Arg-AMC, cathepsin K), 2 μM (Z-Phe-Arg-AMC, cathepsin L), and 30 μM (Z-Val-Val-Arg-AMC, cathepsin S).
(§3) The indicated Ki values are averages of the inhibition constants calculated on the basis of 2 to 4 independent dose-effect plots.
(§4) • 1. Calpain I: • 20 nM calpain-I—isolated from human erythrocytes (Calbiochem #208713), 100 μM Suc-Leu-Tyr-AMC (Bachem #1-1355) as substrate in buffer with 62 mM imidazole, 0.3 mM CaCl2, 0.10% CHAPS, 0.05% BSA, 1 mM DTT at pH 7.3 and room temperature. • 2. Cathepsin B: • 0.25 nM cathepsin B—isolated from human liver (Calbiochem #219362), 100 μM Z-Phe-Arg-AMC (Bachem #1-1160) as substrate 50 mM MES, 2 mM EDTA, 0.05% Brij 35, 2.5 mM L-cysteine, pH 6.0, room temperature. • 3. Cathepsin K: • 3 nM cathepsin K—activated from recombinant human procathepsin K from E. coli (Calbiochem #342001), 10 μM Z-Gly-Pro-Arg-AMC (Biomol #P-142) as substrate in 50 mM MES, 2 mM EDTA, 0.05% Brij 35, 2.5 mM L-cysteine, pH 6.0, room temperature. • 4. Cathepsin L: • 1 nM cathepsin L—isolated from human liver (Calbiochem #219402), 2 μM Z-Phe-Arg-AMC (Bachem #1-1160) as substrate in 50 mM MES, 2 mM EDTA, 0.05% Brij 35, 2.5 mM L-cysteine, pH 6.0, room temperature. • 5. Cathepsin S: • 0.5 nM recombinant human cathepsin S from E. coli (Calbiochem #219343), 20 μM Z-Val-Val-Arg-AMC (Bachem #1-1540) as substrate in 50 mM MES, 2 mM EDTA, 0.05% Brij 35, 2.5 mM L-cysteine, pH 6.0, room temperature.

cathepsin L = target: T2, cathepsin L (Homo sapiens, UniProt P07711); experiment: Cathepsin L enzyme inhibition in vitro (kinetic fluorescence assay); conditions: Ki(cathepsin L)/Ki(calpain) ratio
T2 construct: cathepsin L—isolated from human liver; purchased Calbiochem 219402; host or cells: human liver (tissue isolate)
Method: as §1, §2, §3, §4

cathepsin K = target: T3, cathepsin K (Homo sapiens, UniProt P43235); experiment: Cathepsin K enzyme inhibition in vitro (kinetic fluorescence assay); conditions: Ki(cathepsin K)/Ki(calpain) ratio
T3 construct: purchased Calbiochem 342001; host or cells: E. coli
T3 sequence (P43235 115-329): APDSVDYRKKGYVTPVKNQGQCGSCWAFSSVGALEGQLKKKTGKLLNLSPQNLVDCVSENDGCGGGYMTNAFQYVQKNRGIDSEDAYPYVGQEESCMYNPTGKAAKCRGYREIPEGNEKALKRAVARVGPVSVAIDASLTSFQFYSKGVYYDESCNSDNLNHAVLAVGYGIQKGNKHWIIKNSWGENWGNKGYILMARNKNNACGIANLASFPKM
Method: as §1, §2, §3, §4

cathepsin S = target: T4, cathepsin S (Homo sapiens, UniProt P25774); experiment: Cathepsin S enzyme inhibition in vitro (kinetic fluorescence assay); conditions: Ki(cathepsin S)/Ki(calpain) ratio
T4 construct: purchased Calbiochem 219343; host or cells: E. coli
Method: as §1, §2, §3, §4

T2 sequence (P07711 114-333): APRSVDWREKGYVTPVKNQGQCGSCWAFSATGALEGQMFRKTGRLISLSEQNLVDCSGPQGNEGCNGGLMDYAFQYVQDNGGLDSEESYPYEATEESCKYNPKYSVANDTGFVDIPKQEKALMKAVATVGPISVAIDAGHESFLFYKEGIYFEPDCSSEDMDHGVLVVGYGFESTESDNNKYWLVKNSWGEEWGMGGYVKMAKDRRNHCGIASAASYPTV
T4 sequence (P25774 115-331): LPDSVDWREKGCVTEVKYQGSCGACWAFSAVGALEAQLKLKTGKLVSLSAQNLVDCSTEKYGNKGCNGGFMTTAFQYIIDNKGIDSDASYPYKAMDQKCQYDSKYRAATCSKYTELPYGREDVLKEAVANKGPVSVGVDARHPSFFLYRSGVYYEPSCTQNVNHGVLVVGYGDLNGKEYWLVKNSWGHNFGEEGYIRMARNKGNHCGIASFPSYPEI

Row | SMILES | Sel cat. B (cathepsin B) | Sel cat. L (cathepsin L) | Sel cat. K (cathepsin K) | Sel cat. S (cathepsin S)
1 | NC(=O)C(=O)C(Cc1ccccc1)NC(=O)c1cccnc1-n1ccc(-c2ccc(N3CCOCC3)cc2Cl)n1 (centres unmarked) [Example 99, N-[3-Amino-2,3-dioxo-1-(phenylmethyl)propyl]-2-[3-(2-chloro-4-morpholin-4-ylphenyl)-1H-pyrazol-1-yl]pyridine-3-carboxamide] | ++ (++ means a Ki(cathepsin B)/Ki(calpain) ratio of ≧30) | ++ (++ means a Ki(cathepsin L)/Ki(calpain) ratio of ≧50) | ++ (++ means a Ki(cathepsin K)/Ki(calpain) ratio of ≧30) | ++ (++ means a Ki(cathepsin S)/Ki(calpain) ratio of ≧100)
2 | NC(=O)C(=O)C(Cc1ccccc1)NC(=O)c1cc(Cl)cnc1-n1ccc(-c2ccc(N3CCOCC3)cc2)n1 (centres unmarked) [Example 31, N-(3-Amino-1-benzyl-2,3-dioxopropyl)-5-chloro-2-[3-(4-morpholin-4-ylphenyl)-1H-pyrazol-1-yl]nicotinamide] | ++ (++ means a Ki(cathepsin B)/Ki(calpain) ratio of ≧30) | + (+ means 30≦Ki(cathepsin L)/Ki(calpain)<50) | + (+ means 10≦Ki(cathepsin K)/Ki(calpain)<30) | 
3 | NC(=O)C(=O)C(Cc1ccccc1)NC(=O)c1cc(Cl)cnc1-n1ccc(-c2ccccc2)n1 (centres unmarked) [Example 27, N-(3-Amino-1-benzyl-2,3-dioxopropyl)-5-chloro-2-(3-phenyl-1H-pyrazol-1-yl)nicotin-amide] | ++ (++ means a Ki(cathepsin B)/Ki(calpain) ratio of ≧30) | + (+ means 30≦Ki(cathepsin L)/Ki(calpain)<50) | + (+ means 10≦Ki(cathepsin K)/Ki(calpain)<30) | 
4 | NC(=O)C(=O)C(CC1CCCCC1)NC(=O)c1cccnc1-n1ccc(-c2ccccc2)n1 (centres unmarked) [Example 66, N-[3-Amino-1-(cyclohexylmethyl)-2,3-dioxopropyl]-2-(3-phenyl-1H-pyrazol-1-yl)nicotinamide] |  | + (+ means 30≦Ki(cathepsin L)/Ki(calpain)<50) | + (+ means 10≦Ki(cathepsin K)/Ki(calpain)<30) | ++ (++ means a Ki(cathepsin S)/Ki(calpain) ratio of ≧100)
5 | N#Cc1cnc(-n2ccc(-c3ccccc3)n2)c(C(=O)NC(Cc2ccccc2)C(=O)C(N)=O)c1 (centres unmarked) [Example 82, N-(3-Amino-1-benzyl-2,3-dioxopropyl)-5-cyano-2-(3-phenyl-1H-pyrazol-1-yl)nicotinamide] | ++ (++ means a Ki(cathepsin B)/Ki(calpain) ratio of ≧30) | ++ (++ means a Ki(cathepsin L)/Ki(calpain) ratio of ≧50) | ++ (++ means a Ki(cathepsin K)/Ki(calpain) ratio of ≧30) | 
6 | Cc1cn(-c2ncccc2C(=O)NC(Cc2ccccc2)C(=O)C(N)=O)nc1-c1ccccc1 (centres unmarked) [Example 84, N-(3-Amino-1-benzyl-2,3-dioxopropyl)-2-(4-methyl-3-phenyl-1H-pyrazol-1-yl)nicotinamide] | + (+ means 10≦Ki(cathepsin B)/Ki(calpain)<30) | ++ (++ means a Ki(cathepsin L)/Ki(calpain) ratio of ≧50) |  | ++ (++ means a Ki(cathepsin S)/Ki(calpain) ratio of ≧100)
7 | Cl.NC(=O)C(=O)C(Cc1ccccc1)NC(=O)c1cccnc1-n1ccc(-c2ccc(N3CCOCC3)cc2)n1 (centres unmarked) [Example 29, N-(3-Amino-1-benzyl-2,3-dioxopropyl)-2-[3-(4-morpholin-4-ylphenyl)-1H-pyrazol-1-yl]nicotinamide hydrochloride] |  | ++ (++ means a Ki(cathepsin L)/Ki(calpain) ratio of ≧50) | + (+ means 10≦Ki(cathepsin K)/Ki(calpain)<30) | ++ (++ means a Ki(cathepsin S)/Ki(calpain) ratio of ≧100)
8 | NC(=O)C(=O)C(Cc1cccs1)NC(=O)c1cccnc1-n1ccc(-c2ccccc2)n1 (centres unmarked) [Example 40, N-[3-Amino-2,3-dioxo-1-(2-thienylmethyl)propyl]-2-(3-phenyl-1H-pyrazol-1-yl)pyridine-3-carboxamide] | + (+ means 10≦Ki(cathepsin B)/Ki(calpain)<30) | ++ (++ means a Ki(cathepsin L)/Ki(calpain) ratio of ≧50) |  | ++ (++ means a Ki(cathepsin S)/Ki(calpain) ratio of ≧100)
9 | COc1ccc(OC)c(-c2ccn(-c3ncccc3C(=O)NC(Cc3ccccc3)C(=O)C(N)=O)n2)c1 (centres unmarked) [Example 151, N-[3-Amino-2,3-dioxo-1-(phenylmethyl)propyl]-2-{3-[2,5-bis(methyloxy)phenyl]-1H-pyrazol-1-yl}pyridine-3-carboxamide] | ++ (++ means a Ki(cathepsin B)/Ki(calpain) ratio of ≧30) | ++ (++ means a Ki(cathepsin L)/Ki(calpain) ratio of ≧50) | ++ (++ means a Ki(cathepsin K)/Ki(calpain) ratio of ≧30) | 
10 | CC(C)c1ccc2c(c1)-c1nn(-c3ncccc3C(=O)NC(Cc3ccccc3)C(=O)C(N)=O)cc1CO2 (centres unmarked) [Example 144, N-[3-Amino-2,3-dioxo-1-(phenylmethyl)propyl]-2-[8-(1-methylethyl)chromeno[4,3-c]pyrazol-2(4H)-yl]pyridine-3-carboxamide] | + (+ means 10≦Ki(cathepsin B)/Ki(calpain)<30) | ++ (++ means a Ki(cathepsin L)/Ki(calpain) ratio of ≧50) |  | ++ (++ means a Ki(cathepsin S)/Ki(calpain) ratio of ≧100)
11 | CN1CCN(c2ccc(-c3ccn(-c4ncccc4C(=O)NC(Cc4ccccc4)C(=O)C(N)=O)n3)cc2)CC1 (centres unmarked) [Example 68, N-(3-Amino-1-benzyl-2,3-dioxopropyl)-2-{3-[4-(4-methylpiperazin-1-yl)phenyl]-1H-pyrazol-1-yl}nicotinamide] |  |  | + (+ means 10≦Ki(cathepsin K)/Ki(calpain)<30) | ++ (++ means a Ki(cathepsin S)/Ki(calpain) ratio of ≧100)
12 | NC(=O)C(=O)C(Cc1ccccc1)NC(=O)c1cccnc1-n1ccc(-c2ccc3c(c2)CCO3)n1 (centres unmarked) [Example 75, N-(3-Amino-1-benzyl-2,3-dioxopropyl)-2-[3-(2,3-dihydrobenzo[b]furan-5-yl)-1H-pyrazol-1-yl]nicotinamide] |  | ++ (++ means a Ki(cathepsin L)/Ki(calpain) ratio of ≧50) | + (+ means 10≦Ki(cathepsin K)/Ki(calpain)<30) | ++ (++ means a Ki(cathepsin S)/Ki(calpain) ratio of ≧100)
13 | N#Cc1cnc(-n2ccc(-c3ccccc3F)n2)c(C(=O)NC(Cc2ccccc2)C(=O)C(N)=O)c1 (centres unmarked) [Example 188, N-[3-Amino-2,3-dioxo-1-(phenylmethyl)propyl]-5-cyano-2-[3-(2-fluorophenyl)-1H-pyrazol-1-yl]pyridine-3-carboxamide] |  | ++ (++ means a Ki(cathepsin L)/Ki(calpain) ratio of ≧50) | ++ (++ means a Ki(cathepsin K)/Ki(calpain) ratio of ≧30) | 
14 | NC(=O)C(=O)C(Cc1ccccc1)NC(=O)c1cccnc1-n1ccc(C2CCCCC2)n1 (centres unmarked) [Example 192, N-[3-Amino-2,3-dioxo-1-(phenylmethyl)propyl]-2-(3-cyclohexyl-1H-pyrazol-1-yl)pyridine-3-carboxamide] |  | ++ (++ means a Ki(cathepsin L)/Ki(calpain) ratio of ≧50) | + (+ means 10≦Ki(cathepsin K)/Ki(calpain)<30) | ++ (++ means a Ki(cathepsin S)/Ki(calpain) ratio of ≧100)
15 | NC(=O)C(=O)C(Cc1ccccc1)NC(=O)c1cccnc1-n1ccc(-c2cccc(N3CCCC3)c2)n1 (centres unmarked) [Example 74, N-(3-Amino-1-benzyl-2,3-dioxopropyl)-2-[3-(3-pyrrolidin-1-ylphenyl)-1H-pyrazol-1-yl]nicotinamide] | ++ (++ means a Ki(cathepsin B)/Ki(calpain) ratio of ≧30) |  | ++ (++ means a Ki(cathepsin K)/Ki(calpain) ratio of ≧30) | ++ (++ means a Ki(cathepsin S)/Ki(calpain) ratio of ≧100)
